Assays:
[1] = system: Bacteria; assay: Beta-Lactamase Eurofins-Panlabs enzyme assay; parameters: substrate with concentration; settings: Compound concentration 10.0 uM
[2] = molecular target: GABA-A receptor; anion channel (Rattus norvegicus) (UniProt O09028+P15431+P18506+P18508+P19969+P20236+P23574+P23576+P28471+P28473+P30191+P62813+P63079+P63138+Q91ZM7+Q9ES14); assay: Inhibition of GABAA, Muscimol, Central at 10 µM in the Eurofins-Panlabs radioligand binding assay (Eurofins_assay_226500); type: protein-complex assay; settings: Compound concentration 10.0 uM
[3] = molecular target: Adenosine receptor A2a (Homo sapiens) (UniProt P29274); settings: Compound concentration 10.0 uM
Sequence of Adenosine receptor A2a (Homo sapiens) (P29274 whole entry): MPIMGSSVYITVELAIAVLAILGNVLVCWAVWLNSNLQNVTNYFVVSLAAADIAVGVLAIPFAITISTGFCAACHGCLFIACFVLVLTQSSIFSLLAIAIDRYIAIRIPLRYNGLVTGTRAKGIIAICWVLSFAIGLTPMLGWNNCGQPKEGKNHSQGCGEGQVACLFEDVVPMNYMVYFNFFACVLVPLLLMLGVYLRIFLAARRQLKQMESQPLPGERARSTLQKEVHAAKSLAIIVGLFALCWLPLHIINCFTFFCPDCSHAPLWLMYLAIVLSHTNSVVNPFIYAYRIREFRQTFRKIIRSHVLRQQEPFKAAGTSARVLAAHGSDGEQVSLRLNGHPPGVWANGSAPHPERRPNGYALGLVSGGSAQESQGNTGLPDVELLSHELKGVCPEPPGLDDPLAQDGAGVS

[4] = molecular target: CYP2C19 (Homo sapiens, UniProt P33261); assay: CYP450, 2C19 Eurofins-Panlabs enzyme assay; settings: compound concentration 10 uM
Sequence of CYP2C19 (P33261 whole entry): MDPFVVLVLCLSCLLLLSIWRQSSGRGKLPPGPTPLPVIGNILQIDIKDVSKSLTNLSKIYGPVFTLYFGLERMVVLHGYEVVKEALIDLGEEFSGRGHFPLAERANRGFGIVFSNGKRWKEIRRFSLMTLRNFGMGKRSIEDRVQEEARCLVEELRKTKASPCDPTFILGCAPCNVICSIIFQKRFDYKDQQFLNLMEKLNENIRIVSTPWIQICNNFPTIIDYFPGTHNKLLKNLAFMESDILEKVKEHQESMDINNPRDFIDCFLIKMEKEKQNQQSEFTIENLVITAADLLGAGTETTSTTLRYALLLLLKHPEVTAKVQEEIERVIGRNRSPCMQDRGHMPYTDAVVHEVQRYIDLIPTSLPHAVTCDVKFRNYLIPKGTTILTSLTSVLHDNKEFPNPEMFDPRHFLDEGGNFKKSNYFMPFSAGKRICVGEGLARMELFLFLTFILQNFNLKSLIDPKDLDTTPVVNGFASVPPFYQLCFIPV

[5] = molecular target: B2 bradykinin receptor (Homo sapiens) (UniProt P30411); settings: Compound concentration 10.0 uM
Sequence of B2 bradykinin receptor (Homo sapiens) (P30411 whole entry): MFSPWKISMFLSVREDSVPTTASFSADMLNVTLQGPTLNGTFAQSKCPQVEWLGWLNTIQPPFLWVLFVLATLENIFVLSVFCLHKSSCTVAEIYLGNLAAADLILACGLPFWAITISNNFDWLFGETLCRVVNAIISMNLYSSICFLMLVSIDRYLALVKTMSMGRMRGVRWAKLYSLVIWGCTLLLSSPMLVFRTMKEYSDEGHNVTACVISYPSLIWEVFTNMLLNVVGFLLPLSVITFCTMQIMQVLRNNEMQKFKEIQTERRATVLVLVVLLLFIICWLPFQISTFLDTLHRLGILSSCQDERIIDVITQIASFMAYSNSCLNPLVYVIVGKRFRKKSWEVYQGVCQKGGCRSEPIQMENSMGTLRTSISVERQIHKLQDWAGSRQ

[6] = molecular target: T1, Muscarinic acetylcholine receptor M5 (Homo sapiens) (UniProt P08912); assay: Inhibition of Muscarinic M5 at 10 µM in the Eurofins-Panlabs radioligand binding assay (Eurofins_assay_253010); parameters: ligand concentration 0.8 nM; settings: Compound concentration 10.0 uM
T1 sequence (whole entry): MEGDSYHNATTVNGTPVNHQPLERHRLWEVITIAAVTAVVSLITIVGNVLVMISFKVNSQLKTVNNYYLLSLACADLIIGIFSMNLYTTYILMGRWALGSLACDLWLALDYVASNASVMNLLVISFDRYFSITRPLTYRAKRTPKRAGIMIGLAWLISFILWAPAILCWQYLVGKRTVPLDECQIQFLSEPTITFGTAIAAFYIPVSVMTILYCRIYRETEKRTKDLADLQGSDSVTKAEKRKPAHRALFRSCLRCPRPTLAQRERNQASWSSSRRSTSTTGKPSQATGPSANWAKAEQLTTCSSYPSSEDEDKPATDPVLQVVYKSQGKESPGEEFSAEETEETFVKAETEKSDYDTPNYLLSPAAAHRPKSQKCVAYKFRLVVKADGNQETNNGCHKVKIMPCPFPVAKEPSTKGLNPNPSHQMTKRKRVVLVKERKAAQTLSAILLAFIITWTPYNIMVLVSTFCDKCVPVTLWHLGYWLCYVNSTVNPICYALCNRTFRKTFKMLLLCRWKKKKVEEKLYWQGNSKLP

[7] = organism: Rattus norvegicus; assay: Inhibition of Glutamate, NMDA, Phencyclidine at 10 µM in the Eurofins-Panlabs radioligand binding assay (Eurofins_assay_233000); type: protein-complex assay; settings: Compound concentration 10.0 uM
[8] = molecular target: 5-hydroxytryptamine receptor 4 (Homo sapiens) (UniProt Q13639); assay: Inhibition of Serotonin (5-Hydroxytryptamine) 5-HT4 at 10 µM in the Eurofins-Panlabs radioligand binding assay (Eurofins_assay_272000); settings: Cavia porcellus; Compound concentration 10.0 uM
Sequence of 5-hydroxytryptamine receptor 4 (Homo sapiens) (Q13639 whole entry): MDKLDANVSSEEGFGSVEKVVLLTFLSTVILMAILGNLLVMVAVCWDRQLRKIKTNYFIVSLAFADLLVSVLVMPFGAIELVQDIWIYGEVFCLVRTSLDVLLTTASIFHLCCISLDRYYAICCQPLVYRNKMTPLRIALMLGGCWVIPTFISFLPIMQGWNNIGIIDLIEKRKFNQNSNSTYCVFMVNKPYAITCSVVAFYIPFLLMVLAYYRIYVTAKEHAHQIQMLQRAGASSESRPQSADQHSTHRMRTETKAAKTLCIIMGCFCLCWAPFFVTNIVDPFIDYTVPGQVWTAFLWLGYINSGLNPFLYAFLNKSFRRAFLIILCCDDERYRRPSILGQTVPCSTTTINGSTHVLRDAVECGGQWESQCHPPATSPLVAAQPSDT

[9] = molecular target: T2, 5-hydroxytryptamine receptor 3A (Homo sapiens) (UniProt P46098); assay: Inhibition of Serotonin (5-Hydroxytryptamine) 5-HT3 at 10 µM in the Eurofins-Panlabs radioligand binding assay (Eurofins_assay_271910); parameters: ligand concentration 0.69 nM; settings: Compound concentration 10.0 uM
T2 sequence (whole entry): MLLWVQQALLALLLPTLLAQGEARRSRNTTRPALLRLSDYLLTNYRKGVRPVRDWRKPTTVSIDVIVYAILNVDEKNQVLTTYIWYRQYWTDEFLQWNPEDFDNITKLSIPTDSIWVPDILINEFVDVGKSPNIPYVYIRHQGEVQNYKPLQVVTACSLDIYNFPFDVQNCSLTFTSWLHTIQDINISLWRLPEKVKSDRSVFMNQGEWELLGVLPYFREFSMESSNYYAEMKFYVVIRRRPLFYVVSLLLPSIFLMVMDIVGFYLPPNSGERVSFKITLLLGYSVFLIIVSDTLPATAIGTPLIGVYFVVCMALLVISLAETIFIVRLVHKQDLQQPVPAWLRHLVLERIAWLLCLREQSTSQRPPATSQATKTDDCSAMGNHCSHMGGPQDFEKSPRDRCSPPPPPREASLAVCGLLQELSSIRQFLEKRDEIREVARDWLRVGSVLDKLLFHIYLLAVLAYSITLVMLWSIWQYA

[10] = molecular target: Matrix metalloproteinase-9 (Homo sapiens) (UniProt P14780); assay: Inhibition of Peptidase, Matrix Metalloproteinase-9 (MMP-9) at 10 µM in the Eurofins-Panlabs enzyme assay (Eurofins_assay_114910); parameters: substrate with concentration; settings: Compound concentration 10.0 uM
Sequence of Matrix metalloproteinase-9 (Homo sapiens) (P14780 whole entry): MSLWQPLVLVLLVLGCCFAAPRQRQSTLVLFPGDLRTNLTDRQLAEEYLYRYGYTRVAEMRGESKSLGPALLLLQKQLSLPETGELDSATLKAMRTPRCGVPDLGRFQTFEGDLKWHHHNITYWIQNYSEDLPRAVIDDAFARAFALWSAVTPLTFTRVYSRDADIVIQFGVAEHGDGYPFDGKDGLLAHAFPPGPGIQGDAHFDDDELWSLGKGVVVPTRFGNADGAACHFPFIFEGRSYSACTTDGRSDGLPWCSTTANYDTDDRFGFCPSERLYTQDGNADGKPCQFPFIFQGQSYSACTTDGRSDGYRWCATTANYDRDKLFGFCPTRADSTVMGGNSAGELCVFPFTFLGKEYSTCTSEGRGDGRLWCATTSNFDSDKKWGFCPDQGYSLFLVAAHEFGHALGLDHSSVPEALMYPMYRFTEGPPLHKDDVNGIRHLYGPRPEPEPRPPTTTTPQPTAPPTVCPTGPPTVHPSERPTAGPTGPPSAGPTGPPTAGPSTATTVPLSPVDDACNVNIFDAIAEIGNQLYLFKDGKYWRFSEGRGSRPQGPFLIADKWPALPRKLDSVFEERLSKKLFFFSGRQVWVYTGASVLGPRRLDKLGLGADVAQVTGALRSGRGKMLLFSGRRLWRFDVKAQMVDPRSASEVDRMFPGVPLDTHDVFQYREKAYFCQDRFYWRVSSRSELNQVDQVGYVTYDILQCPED

[11] = molecular target: T3, Alpha-2C adrenergic receptor (Homo sapiens) (UniProt P18825); assay: Adrenergic alpha2C Eurofins-Panlabs radioligand binding assay; parameters: ligand concentration 1 nM, non-specific ligand with concentration 10 µM WB-4101, incubation time 60 min, incubation temperature 25 °C; settings: Compound concentration 10.0 uM
T3 sequence (whole entry): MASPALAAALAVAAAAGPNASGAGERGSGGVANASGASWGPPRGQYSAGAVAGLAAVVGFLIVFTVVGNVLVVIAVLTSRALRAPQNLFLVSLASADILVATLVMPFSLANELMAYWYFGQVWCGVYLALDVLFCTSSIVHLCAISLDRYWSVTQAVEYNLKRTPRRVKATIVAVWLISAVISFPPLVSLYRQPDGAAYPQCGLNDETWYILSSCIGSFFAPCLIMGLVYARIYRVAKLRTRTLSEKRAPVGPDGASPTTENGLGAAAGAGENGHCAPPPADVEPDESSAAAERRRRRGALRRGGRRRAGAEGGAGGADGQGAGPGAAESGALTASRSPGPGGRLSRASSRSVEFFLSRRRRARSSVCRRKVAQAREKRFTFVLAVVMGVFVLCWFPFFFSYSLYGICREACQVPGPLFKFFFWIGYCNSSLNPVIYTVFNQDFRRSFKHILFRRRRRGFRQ

[12] = organism: Homo sapiens; assay: Inhibition of Tumor Necrosis Factor (TNF), Non-Selective at 10 µM in the Eurofins-Panlabs radioligand binding assay (Eurofins_assay_286510); settings: Compound concentration 10.0 uM
[13] = Inhibition of Atrial Natriuretic Factor (ANF) at 10 µM in the Eurofins-Panlabs radioligand binding assay (Eurofins_assay_211000); settings: Cavia porcellus; Compound concentration 10 uM; Assay protocol publication PMID: 2408776; Detection method Radioligand Binding; Incubation temperature 4 °C; Incubation time 60 min; Ligand Bmax 0.013 pM/ mg protein; Ligand Kd 0.14 nM; Ligand [125I] ANF (rat); Ligand concentration 0.016 nM; Ligand specific binding 78 %; Non-specific ligand with concentration 0.1 µM ANF (rat); Reference compound ANF (rat); Source of …
[14] = molecular target: Beta-2 adrenergic receptor (Homo sapiens) (UniProt P07550); settings: Compound concentration 10.0 uM
Sequence of Beta-2 adrenergic receptor (Homo sapiens) (P07550 whole entry, looked up): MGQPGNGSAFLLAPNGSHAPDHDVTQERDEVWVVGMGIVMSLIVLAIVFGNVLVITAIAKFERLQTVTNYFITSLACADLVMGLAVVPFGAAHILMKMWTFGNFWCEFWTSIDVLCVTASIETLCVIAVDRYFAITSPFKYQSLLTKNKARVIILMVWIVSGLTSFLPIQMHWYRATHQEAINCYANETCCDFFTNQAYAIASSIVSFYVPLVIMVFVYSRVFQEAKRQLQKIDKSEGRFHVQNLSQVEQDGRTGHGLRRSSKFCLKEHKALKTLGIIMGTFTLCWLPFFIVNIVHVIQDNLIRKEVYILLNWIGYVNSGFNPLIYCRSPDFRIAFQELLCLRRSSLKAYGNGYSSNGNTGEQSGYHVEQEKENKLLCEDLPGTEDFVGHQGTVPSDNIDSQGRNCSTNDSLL

[15] = molecular target: Cannabinoid receptor 1 (Homo sapiens, UniProt P21554)
Sequence of Cannabinoid receptor 1 (P21554 whole entry): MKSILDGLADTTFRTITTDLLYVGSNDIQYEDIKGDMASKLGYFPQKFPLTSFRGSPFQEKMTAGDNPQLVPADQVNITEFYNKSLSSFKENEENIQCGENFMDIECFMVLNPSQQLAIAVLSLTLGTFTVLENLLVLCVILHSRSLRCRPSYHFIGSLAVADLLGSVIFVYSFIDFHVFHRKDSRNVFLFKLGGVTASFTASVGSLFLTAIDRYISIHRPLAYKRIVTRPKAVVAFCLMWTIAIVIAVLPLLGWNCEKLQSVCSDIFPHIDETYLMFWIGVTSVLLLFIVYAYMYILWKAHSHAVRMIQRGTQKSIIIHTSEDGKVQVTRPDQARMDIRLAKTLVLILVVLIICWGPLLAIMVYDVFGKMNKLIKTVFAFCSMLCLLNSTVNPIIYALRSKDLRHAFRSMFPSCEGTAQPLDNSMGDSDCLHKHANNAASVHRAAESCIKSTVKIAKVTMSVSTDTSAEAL

[16] = molecular target: Adenosine receptor A3 (Homo sapiens) (UniProt P0DMS8); settings: Compound concentration 10.0 uM
Sequence of Adenosine receptor A3 (Homo sapiens) (P0DMS8 whole entry): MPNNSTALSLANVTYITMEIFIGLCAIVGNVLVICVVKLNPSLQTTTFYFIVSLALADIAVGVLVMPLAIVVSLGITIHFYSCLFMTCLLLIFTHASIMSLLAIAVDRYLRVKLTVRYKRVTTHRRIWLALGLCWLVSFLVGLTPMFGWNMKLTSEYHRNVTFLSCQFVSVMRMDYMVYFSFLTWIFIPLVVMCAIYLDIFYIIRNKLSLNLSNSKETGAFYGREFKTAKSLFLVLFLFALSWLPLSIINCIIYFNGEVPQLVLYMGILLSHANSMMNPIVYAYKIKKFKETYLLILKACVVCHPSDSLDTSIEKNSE

[17] = molecular target: Melanocortin receptor 5 (Homo sapiens) (UniProt P33032); assay: Inhibition of Melanocortin MC5 at 10 µM in the Eurofins-Panlabs radioligand binding assay (Eurofins_assay_251400); parameters: ligand concentration 0.035 nM; settings: Compound concentration 10.0 uM
Sequence of Melanocortin receptor 5 (Homo sapiens) (P33032 whole entry): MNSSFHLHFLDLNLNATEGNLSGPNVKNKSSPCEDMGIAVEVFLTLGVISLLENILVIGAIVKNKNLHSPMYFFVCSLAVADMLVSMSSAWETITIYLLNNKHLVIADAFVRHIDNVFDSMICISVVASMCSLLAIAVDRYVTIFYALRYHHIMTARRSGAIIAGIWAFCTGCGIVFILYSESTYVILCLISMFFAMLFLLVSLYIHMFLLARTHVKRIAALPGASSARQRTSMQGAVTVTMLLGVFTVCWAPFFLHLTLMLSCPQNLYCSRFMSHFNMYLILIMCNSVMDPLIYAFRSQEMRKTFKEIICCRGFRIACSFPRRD

[18] = molecular target: D(2) dopamine receptor (Homo sapiens) (UniProt P14416); settings: Compound concentration 10.0 uM
Sequence of D(2) dopamine receptor (Homo sapiens) (P14416 whole entry): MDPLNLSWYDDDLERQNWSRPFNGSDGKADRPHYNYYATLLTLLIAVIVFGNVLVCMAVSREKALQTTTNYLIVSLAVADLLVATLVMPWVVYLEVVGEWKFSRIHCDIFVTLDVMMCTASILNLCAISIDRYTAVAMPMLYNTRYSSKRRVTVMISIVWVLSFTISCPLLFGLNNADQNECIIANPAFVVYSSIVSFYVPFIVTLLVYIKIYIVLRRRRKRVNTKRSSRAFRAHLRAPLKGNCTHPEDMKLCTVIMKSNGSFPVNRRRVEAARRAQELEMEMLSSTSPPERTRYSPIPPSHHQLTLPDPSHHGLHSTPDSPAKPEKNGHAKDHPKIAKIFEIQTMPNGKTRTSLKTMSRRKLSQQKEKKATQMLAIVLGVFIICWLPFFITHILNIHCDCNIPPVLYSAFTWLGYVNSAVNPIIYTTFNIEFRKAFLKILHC

| SMILES | inhibition [1] | inhibition [2] | inhibition [3] | inhibition at 10 µM [4] | inhibition [5] | inhibition [6] | inhibition [7] | inhibition [8] | inhibition [9] | inhibition [10] | inhibition [11] | inhibition [12] | inhibition at 10 µM [13] | inhibition [14] | inhibition ([15]; Compound concentration 3.0 uM) | inhibition ([15]; Compound concentration 10.0 uM) | inhibition [16] | inhibition [17] | inhibition [18] |
| --- | --- | --- | --- | --- | --- | --- | --- | --- | --- | --- | --- | --- | --- | --- | --- | --- | --- | --- | --- |
| O=C(NCc1ncc(C(F)(F)F)cc1Cl)c1ccc2c(c1)C1(CCS(=O)(=O)CC1)[C@H](C1CC1)N2S(=O)(=O)c1ccc(F)cc1 [BAY-784] | -2% | 7% | 0% | 36% (not active) | 9% | 0% | -4% | 22% | 19% | 3% | 3% | 22% | 2% (not active) | -4% | 52% | 73% | 9% | 27% |  |
| O=C(NCc1ncc(C(F)(F)F)cc1Cl)c1ccc2c(c1)C1(CCS(=O)(=O)CC1)[C@@H](C1CC1)N2S(=O)(=O)c1ccc(F)cc1 [BAY-786] |  |  |  |  |  |  |  |  |  |  |  |  |  |  |  |  |  |  | -8.4% |
